The test system of assay [1] is T1, T1-chimera.
T1 construct: gene NaChBac; single-chain fusion: N-terminal His6 tag, human Kv1.2 T1 domain (1-145, MTV...NEF), then NaChBac TM domain printed as 9-239 (KQN...ELT; forward primer encodes QKQN, K8 is in QKQ, so start is probably Q7), CTD removed; E. coli C41(DE3); with Potassium voltage-gated channel subfamily A member 2
Put plainly: […]+ flux assay in proteoliposomes. As to conditions: estimated; block at 45 min, POPE:POPG 3:1 liposomes, 450 mM NaCl inside, pH 7.5; pore blocker. Type of assay: biochemical, Halalkalibacterium halodurans.

Assay [2] addresses T2, full-length NaChBac (Halalkalibacterium halodurans, UniProt Q9KCR8).
T2 construct: gene BH1501; full-length, hexa-histidine-tagged (pET-15b), expressed in E. coli C41(DE3), purified in Cymal-5, reconstituted in POPE:POPG liposomes
T2 sequence (Q9KCR8 1-274): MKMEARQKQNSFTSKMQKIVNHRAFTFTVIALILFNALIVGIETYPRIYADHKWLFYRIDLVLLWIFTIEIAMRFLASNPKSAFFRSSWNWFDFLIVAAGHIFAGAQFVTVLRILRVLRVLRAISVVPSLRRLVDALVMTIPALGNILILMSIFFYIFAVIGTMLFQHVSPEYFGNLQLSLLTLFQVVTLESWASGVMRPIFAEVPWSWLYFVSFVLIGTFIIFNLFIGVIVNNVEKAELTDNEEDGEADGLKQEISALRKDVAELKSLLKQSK
In words: […]+ flux assay in proteoliposomes. Type of assay: biochemical.

SMILES strings stand for the structures.

For the compound `COCC(=O)O[C@]1(CCN(C)CCCc2nc3ccccc3[nH]2)CCc2cc(F)ccc2[C@@H]1C(C)C` [mibefradil], the IC50 in assay [1] and in assay [2] was 2 µM each time.

The record behind these values is PMC9303580, “The T1‐tetramerisation domain of Kv1.2 rescues expression and preserves function of a truncated NaChBac sodium channel” (Febs Letters, 2022).
